According to ChEMBL document CHEMBL1201862, “PubChem BioAssay data set” (2004):
The source made the active and inactive calls.

Assays:
[1] = biological target: T1, Caspase-3 (Homo sapiens, UniProt P42574); experiment: inhibition of recombinant caspase-3 activity – biochemical, luminescence, set 2, selectivity assay for SENP protease inhibitor project, SAR follow-up (AID 588599); format: functional
T1 sequence (P42574 whole entry): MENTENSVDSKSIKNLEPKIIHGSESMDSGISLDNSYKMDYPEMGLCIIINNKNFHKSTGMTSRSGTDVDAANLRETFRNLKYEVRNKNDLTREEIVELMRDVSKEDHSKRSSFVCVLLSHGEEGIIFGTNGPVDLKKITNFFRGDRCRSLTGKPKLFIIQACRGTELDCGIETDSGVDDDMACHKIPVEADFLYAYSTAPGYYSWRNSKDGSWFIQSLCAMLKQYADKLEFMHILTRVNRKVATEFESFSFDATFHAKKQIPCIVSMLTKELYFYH

[2] = biological target: T2, Sentrin-specific protease 8 (Homo sapiens, UniProt Q96LD8); experiment: inhibition of sentrin protease 8 – biochemical, luminescence, set 2, SAR follow-up (AID 588601); format: functional
T2 sequence (Q96LD8 whole entry): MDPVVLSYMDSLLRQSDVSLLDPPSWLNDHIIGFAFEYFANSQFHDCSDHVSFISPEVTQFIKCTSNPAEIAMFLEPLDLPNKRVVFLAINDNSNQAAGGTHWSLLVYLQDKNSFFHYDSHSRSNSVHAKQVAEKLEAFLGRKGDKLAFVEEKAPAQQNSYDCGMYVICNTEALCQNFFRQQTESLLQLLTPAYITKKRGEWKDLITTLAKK

[3] = biological target: T3, Sentrin-specific protease 7 (Homo sapiens, UniProt Q9BQF6); experiment: inhibition of human SENP7 cleavage activity – biochemical, luminescence, set 2, SAR follow-up (AID 588600); format: functional
T3 sequence (Q9BQF6 whole entry): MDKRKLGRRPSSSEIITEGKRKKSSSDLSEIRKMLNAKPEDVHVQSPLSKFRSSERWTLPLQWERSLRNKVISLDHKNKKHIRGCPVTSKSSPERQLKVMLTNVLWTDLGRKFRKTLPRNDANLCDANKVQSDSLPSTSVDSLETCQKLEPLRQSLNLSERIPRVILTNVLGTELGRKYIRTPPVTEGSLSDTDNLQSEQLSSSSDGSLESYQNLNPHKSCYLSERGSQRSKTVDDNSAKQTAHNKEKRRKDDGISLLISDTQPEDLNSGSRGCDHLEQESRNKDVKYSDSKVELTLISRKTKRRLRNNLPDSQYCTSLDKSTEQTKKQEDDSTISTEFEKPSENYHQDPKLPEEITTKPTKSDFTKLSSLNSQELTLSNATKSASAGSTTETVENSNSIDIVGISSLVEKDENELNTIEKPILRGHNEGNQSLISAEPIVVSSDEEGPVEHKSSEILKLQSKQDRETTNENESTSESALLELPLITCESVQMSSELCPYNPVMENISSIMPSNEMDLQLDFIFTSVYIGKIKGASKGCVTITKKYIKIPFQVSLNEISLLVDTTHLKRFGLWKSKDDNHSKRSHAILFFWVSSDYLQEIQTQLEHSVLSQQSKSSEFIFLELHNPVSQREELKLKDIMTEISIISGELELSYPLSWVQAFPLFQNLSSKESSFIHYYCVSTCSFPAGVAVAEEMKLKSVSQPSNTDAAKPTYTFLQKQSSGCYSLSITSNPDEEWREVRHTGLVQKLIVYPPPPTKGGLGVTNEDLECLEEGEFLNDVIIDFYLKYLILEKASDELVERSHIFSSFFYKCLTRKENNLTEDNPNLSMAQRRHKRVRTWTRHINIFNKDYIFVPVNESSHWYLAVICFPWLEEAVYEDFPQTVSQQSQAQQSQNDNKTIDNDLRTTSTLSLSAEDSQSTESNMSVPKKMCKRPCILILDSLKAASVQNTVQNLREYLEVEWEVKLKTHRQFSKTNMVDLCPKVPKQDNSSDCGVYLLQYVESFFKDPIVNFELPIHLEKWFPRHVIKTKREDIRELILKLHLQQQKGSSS

[4] = biological target: T4, Sentrin-specific protease 6 (Homo sapiens, UniProt Q9GZR1); experiment: inhibition of human SENP6 catalytic domain – biochemical, luminescence, set 2, SAR follow-up (AID 588598); format: functional
T4 sequence (Q9GZR1 whole entry): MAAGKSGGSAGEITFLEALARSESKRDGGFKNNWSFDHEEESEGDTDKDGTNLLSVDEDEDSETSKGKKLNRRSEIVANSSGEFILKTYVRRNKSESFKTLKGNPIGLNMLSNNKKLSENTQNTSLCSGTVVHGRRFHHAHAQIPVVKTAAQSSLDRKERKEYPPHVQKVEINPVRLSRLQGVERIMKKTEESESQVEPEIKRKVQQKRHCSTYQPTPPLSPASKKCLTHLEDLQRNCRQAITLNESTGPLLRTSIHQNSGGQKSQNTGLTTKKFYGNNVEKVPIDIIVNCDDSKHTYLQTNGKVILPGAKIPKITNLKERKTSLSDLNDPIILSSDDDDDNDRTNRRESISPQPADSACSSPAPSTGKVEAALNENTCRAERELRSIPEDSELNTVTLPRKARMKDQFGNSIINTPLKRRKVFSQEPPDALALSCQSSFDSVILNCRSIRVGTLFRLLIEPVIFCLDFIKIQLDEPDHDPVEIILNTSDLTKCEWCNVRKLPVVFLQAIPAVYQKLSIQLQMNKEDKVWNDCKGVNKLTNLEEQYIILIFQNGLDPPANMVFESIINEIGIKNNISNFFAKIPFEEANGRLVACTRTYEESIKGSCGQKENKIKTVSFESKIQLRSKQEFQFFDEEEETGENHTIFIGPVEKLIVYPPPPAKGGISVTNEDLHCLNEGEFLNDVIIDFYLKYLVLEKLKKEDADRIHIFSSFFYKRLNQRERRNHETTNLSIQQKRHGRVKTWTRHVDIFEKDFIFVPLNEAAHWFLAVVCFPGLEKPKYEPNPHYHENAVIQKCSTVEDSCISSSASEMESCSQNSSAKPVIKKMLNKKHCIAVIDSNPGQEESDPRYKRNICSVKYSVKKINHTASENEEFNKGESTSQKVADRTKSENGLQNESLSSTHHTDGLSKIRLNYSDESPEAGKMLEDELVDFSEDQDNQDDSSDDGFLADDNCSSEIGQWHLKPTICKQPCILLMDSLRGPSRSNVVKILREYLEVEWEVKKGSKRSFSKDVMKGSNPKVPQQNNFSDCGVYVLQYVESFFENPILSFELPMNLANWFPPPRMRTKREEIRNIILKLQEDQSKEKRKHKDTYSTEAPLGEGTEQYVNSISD

[5] = biological target: T5, DNA dC->dU-editing enzyme APOBEC-3A (Homo sapiens, UniProt P31941); experiment: A3A deaminase inhibition for selectivity – biochemical, dose response (AID 504722); format: functional
T5 sequence (P31941 whole entry): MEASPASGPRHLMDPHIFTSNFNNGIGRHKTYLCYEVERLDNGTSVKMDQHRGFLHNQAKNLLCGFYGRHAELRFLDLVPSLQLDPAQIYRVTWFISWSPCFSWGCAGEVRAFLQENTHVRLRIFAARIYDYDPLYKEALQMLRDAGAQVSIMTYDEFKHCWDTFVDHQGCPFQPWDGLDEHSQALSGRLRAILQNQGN

[6] = biological target: T6, DNA dC->dU-editing enzyme APOBEC-3G (Homo sapiens, UniProt Q9HC16); experiment: Dose Response confirmation of small molecule APOBEC3G DNA Deaminase Inhibitors via a fluorescence-based single-stranded DNA deaminase assay. [Related pubchem assays (depositor defined):AID493012, AID493028]; format: functional
T6 sequence (Q9HC16 whole entry): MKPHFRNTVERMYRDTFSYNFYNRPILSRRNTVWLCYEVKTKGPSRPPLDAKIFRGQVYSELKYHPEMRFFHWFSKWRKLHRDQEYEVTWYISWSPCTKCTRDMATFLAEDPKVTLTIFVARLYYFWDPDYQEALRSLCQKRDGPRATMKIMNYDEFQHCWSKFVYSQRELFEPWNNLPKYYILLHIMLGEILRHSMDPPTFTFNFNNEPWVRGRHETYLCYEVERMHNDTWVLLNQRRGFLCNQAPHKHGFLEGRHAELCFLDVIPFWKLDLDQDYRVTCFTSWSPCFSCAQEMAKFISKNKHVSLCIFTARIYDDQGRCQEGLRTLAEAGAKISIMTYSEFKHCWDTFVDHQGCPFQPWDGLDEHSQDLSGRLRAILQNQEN

[7] = biological target: T5, DNA dC->dU-editing enzyme APOBEC-3A; experiment: SAR analysis of small molecule inhibitors of APOBEC3A DNA Deaminase via a fluorescence-based single-stranded DNA deaminase assay - Set 2.; format: functional; conditions: read-out: IC50_Mean
[8] = biological target: T6, DNA dC->dU-editing enzyme APOBEC-3G; experiment: SAR analysis of small molecule inhibitors of APOBEC3G DNA Deaminase via a fluorescence-based single-stranded DNA deaminase assay - Set 2.; format: functional; conditions: read-out: IC50_Mean
[9] = biological target: T6, DNA dC->dU-editing enzyme APOBEC-3G; experiment: inhibition of APOBEC3G ssDNA deamination – biochemical, fluorescence, single-stranded DNA substrate, SAR follow-up (AID 602136); format: functional; conditions: read-out: IC50_Mean
[10] = biological target: T5, DNA dC->dU-editing enzyme APOBEC-3A; experiment: SAR analysis of small molecule inhibitors of APOBEC3A DNA Deaminase via a fluorescence-based single-stranded DNA deaminase assay.; format: functional; conditions: read-out: IC50_Mean
[11] = biological target: T7, Rac GTPase-activating protein 1 (Homo sapiens, UniProt Q9H0H5); experiment: blockers of MgcRacGAP-driven Rac1 GTP hydrolysis – biochemical, ADP Hunter fluorescence, primary and confirmatory, confirmation (AID 624330); format: functional
T7 sequence (Q9H0H5 whole entry): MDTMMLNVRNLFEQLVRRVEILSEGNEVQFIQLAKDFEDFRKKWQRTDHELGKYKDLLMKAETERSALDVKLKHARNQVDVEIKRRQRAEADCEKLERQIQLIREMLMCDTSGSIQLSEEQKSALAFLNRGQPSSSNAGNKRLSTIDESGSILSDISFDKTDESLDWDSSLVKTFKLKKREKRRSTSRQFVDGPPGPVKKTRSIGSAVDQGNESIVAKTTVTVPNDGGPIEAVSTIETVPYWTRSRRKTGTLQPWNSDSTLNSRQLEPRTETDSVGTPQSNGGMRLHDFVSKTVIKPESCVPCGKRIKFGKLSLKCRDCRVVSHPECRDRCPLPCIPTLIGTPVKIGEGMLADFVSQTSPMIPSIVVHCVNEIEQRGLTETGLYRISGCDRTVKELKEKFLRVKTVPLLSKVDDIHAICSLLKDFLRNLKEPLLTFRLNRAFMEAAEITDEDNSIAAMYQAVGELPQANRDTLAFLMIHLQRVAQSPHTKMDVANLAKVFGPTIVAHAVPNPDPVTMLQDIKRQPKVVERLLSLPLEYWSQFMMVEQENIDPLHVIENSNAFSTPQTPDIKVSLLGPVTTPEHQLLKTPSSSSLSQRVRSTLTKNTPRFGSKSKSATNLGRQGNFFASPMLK

[12] = viability of uninfected HEp-2 cells – cell-based, HTS, cytotoxicity control for RSV inhibitor project, dose response (AID 2410); format: functional; conditions: human respiratory syncytial virus
[13] = biological target: T8, Insulin-degrading enzyme (Homo sapiens, UniProt P14735); experiment: recombinant IDE activation, cell-free – biochemical, fluorescence polarization, counter-screen for IDE activator project, dose response (AID 588681)
T8 sequence (P14735 whole entry): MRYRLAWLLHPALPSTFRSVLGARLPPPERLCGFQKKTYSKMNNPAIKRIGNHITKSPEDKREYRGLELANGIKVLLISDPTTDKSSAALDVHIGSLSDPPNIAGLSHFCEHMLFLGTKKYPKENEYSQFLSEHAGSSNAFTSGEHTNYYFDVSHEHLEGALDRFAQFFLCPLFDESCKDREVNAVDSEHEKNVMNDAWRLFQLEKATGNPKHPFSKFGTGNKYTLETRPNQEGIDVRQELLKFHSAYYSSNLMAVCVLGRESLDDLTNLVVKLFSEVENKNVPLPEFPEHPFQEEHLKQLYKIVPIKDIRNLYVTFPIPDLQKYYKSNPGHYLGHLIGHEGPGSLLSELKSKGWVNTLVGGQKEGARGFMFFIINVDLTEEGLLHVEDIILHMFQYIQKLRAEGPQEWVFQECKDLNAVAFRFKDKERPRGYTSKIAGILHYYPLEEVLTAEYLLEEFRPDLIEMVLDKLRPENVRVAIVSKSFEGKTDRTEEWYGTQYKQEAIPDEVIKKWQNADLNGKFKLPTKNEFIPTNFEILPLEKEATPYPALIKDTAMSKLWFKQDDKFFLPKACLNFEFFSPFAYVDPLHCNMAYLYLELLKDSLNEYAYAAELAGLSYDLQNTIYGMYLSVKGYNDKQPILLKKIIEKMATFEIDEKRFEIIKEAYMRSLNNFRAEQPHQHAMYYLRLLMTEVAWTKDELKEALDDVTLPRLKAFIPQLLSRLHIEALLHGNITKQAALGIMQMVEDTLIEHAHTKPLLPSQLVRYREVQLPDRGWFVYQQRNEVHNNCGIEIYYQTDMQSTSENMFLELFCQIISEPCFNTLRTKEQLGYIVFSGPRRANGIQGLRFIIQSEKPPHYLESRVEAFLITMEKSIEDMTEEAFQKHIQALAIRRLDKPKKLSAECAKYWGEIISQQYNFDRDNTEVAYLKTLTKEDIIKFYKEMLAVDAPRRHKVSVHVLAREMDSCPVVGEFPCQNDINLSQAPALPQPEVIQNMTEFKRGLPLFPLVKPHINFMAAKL

[14] = biological target: T8, Insulin-degrading enzyme; experiment: cellular IDE activation of Abeta substrate cleavage – fluorescence polarization, HEK cells, dose response (AID 588439); format: functional, cell-based
[15] = tested on: HEK293; experiment: membrane integrity loss in HEK cells – cell-based, fluorescence, cytotoxicity control for IDE activator project, dose response (AID 588440); format: functional; conditions: Homo sapiens;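 further: cytotoxicity by LDH release measuring loss of membrane integrity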
[16] = tested on: HEK293; experiment: optical interference in Abeta FP readout, dose response, artefact control for IDE activator project, biochemical, fluorescence polarization (AID 588442); format: functional, cell-based; conditions: Homo sapiens

IC50 [1]	IC50 [3]	IC50 [4]	Structure (SMILES)	IC50 [2]	EC50 [13]	EC50 [14]	IC50 [15]	EC50 [16]	other results
> 99 µM (inactive)	> 99 µM (inactive)	> 99 µM (inactive)	CN(C)C(=O)C(=O)c1c(-c2ccccc2)[nH]c2ccc(Cl)cc12	> 99 µM (inactive)	–	–	–	–	–
–	–	–	Cc1ccc(-c2csc3n[nH]c(=S)n23)cc1	–	–	–	–	–	IC50 [5]: > 100 µM (inactive); IC50 [6]: 1.35 µM (active); IC50 [7]: > 99 µM (inactive); IC50 [8]: > 99 µM (inactive); IC50 [9]: 3.48 µM (active); IC50 [10]: > 99 µM (inactive); IC50 [11]: 58.1 µM (active)
–	–	–	COc1cc(C2Nc3cccc4cccc(c34)N2)ccc1O	–	> 54.7 µM (inactive)	> 54.7 µM (inactive)	> 89.3 µM (inactive)	> 54.7 µM (inactive)	CC50 [12]: 32.1 µM (active)
–	–	–	COc1ccc(NCC(O)COc2ccc(C(C)(C)C)cc2)cc1 (centres undefined)	–	> 54.7 µM (inactive)	> 54.7 µM (inactive)	49.1 µM (inactive)	> 54.7 µM (inactive)	–
> 99 µM (inactive)	> 99 µM (inactive)	> 99 µM (inactive)	CNC(=O)C1Cc2ccccc2N1C(=O)C(=O)c1c(C)[nH]c2ccccc12 (centres undefined)	> 99 µM (inactive)	–	–	–	–	–
